Test results: ChEMBL document CHEMBL3638965, “Chemical compounds 542” (2015)

What follows are molecules tested against DNA gyrase (Escherichia coli, UniProt P0AES4+P0AES6) (assay: Fluorescence Polarisation Assay: In a black, 384-well polystyrene assay plate, 30 microliters/well of 5 nM Escherichia coli DNA gyrase A/B tetramer and 130 micrograms/ml of topologically relaxed plasmid containing the triplex-forming sequence […] in an assay buffer consisting of 35 mM Tris-HCl (pH 7.5), 24 mM KCl, 4 mM MgCl2, 2 mM dithiothreitol, 1.8 mM spermidine, 5% (v/v) glycerol, 200 nM bovine serum albumin, 0.8% dimethylsulfoxide, and 0.3 mM ATP may be incubated at ambient temperature for (typically 30 minutes) in the absence or presence of 5-10 different concentrations of test compound. The supercoiling reactions may be quenched by the addition of 10 microliters/well of 40 nM oligodeoxynucleotide probe in 3x triplex-forming buffer consisting of 150 mM NaCl, and 150 mM sodium acetate at pH 3.5. The oligodeoxynucleotide probe may be 5x-BODIPY-FL-labeled […]. After 60 minutes, the fluorescence anisotropy of the BODIPY-FL may be measured in a Tecan Ultra plate reader, using 485 nM.).
Type: protein-complex assay

Structure (SMILES)	IC50 [nM]
C[C@@H]1CN2c3c(cc4c(Cl)noc4c3F)CC3(C(=O)NC(=O)NC3=O)[C@H]2[C@H](C)O1	200
C[C@@H]1CN2c3c(cc4c(C(N)=O)noc4c3F)CC3(C(=O)NC(=O)NC3=O)[C@H]2[C@H](C)O1 (relative stereo)	1700
Cc1noc2c(Cl)c3c(nc12)CC1(C(=O)NC(=O)NC1=O)[C@H]1[C@H](C)O[C@H](C)CN31 (relative stereo)	1800
